Test results: ChEMBL document CHEMBL1201861, “Genomics of Drug Sensitity in Cancer screening data, Wellcome Trust Sanger Institute”

Key:
Assay in all cases: cells
[1] = system: SNU-449; type: functional, cell-based, Homo sapiens; settings: Homo sapiens, SNU-449
Description: SANGER: Inhibition of human SNU-449 cell growth in a cell viability assay.

[2] = system: UO-31; type: functional, cell-based; settings: Homo sapiens;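 also: cell viability assay measuring inhibition of cell growth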
Description: SANGER: Inhibition of human U031 cell growth in a cell viability assay.

[3] = system: ML-2; type: functional, cell-based; settings: Homo sapiens;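 also: growth inhibition of ML-2 cells, measured with a cell viability readout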
Description: SANGER: Inhibition of human ML-2 cell growth in a cell viability assay.

[4] = system: EW-13; type: functional, cell-based; settings: Homo sapiens;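 also: growth inhibition of EW-13 cells, read out with a cell viability assay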
Description: SANGER: Inhibition of human EW-13 cell growth in a cell viability assay.

[5] = system: 5637; type: functional, cell-based, Homo sapiens; settings: Homo sapiens
Description: SANGER: Inhibition of human 5637 cell growth in a cell viability assay.

[6] = system: OVCAR-4; type: functional, cell-based, Homo sapiens; settings: Homo sapiens, OVCAR-4;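 also: growth inhibition of human OVCAR-4 cells, measured with a cell viability assay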
Description: SANGER: Inhibition of human OVCAR-4 cell growth in a cell viability assay.

[7] = system: NCI-H226; type: functional, cell-based, Homo sapiens; settings: Homo sapiens, NCI-H226;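 also: cell viability read-out used to gauge growth inhibition of the cells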
Description: SANGER: Inhibition of human NCI-H226 cell growth in a cell viability assay.

[8] = system: VA-ES-BJ; type: functional, cell-based, Homo sapiens; settings: Homo sapiens, VA-ES-BJ;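 also: growth inhibition of the VA-ES-BJ cell line, read out by a cell viability assay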
Description: SANGER: Inhibition of human VA-ES-BJ cell growth in a cell viability assay.

[9] = system: COR-L105; type: functional, cell-based, Homo sapiens; settings: Homo sapiens, COR-L105;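 also: cell growth inhibition determined with a viability assay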
Description: SANGER: Inhibition of human COR-L105 cell growth in a cell viability assay.

[10] = system: KGN; type: functional, cell-based, Homo sapiens; settings: Homo sapiens, KGN;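 also: growth inhibition of KGN cells, read out with a cell viability assay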
Description: SANGER: Inhibition of human KGN cell growth in a cell viability assay.

[11] = system: ES8; type: functional, cell-based, Homo sapiens; settings: Homo sapiens, ES8;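 also: growth inhibition of human ES8 cells, read out with a cell viability assay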
Description: SANGER: Inhibition of human ES8 cell growth in a cell viability assay.

[12] = system: IGROV-1; type: functional, cell-based, Homo sapiens; settings: Homo sapiens, IGROV-1;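 also: reduction of IGROV-1 cell growth, read out with a viability assay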
Description: SANGER: Inhibition of human IGROV-1 cell growth in a cell viability assay.

[13] = system: LB2518-MEL; type: functional, cell-based, Homo sapiens; settings: Homo sapiens, LB2518-MEL;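 also: growth inhibition of human LB2518-MEL cells, measured with a cell viability assay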
Description: SANGER: Inhibition of human LB2518-MEL cell growth in a cell viability assay.

[14] = system: KU812 cell line; type: functional, cell-based; settings: Homo sapiens;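 also: growth inhibition of KU812 cells, read out with a cell viability assay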
Description: SANGER: Inhibition of human KU812 cell growth in a cell viability assay.

[15] = system: CHP-212; type: functional, cell-based, Homo sapiens; settings: Homo sapiens, CHP-212
Description: SANGER: Inhibition of human CHP-212 cell growth in a cell viability assay.

[16] = system: IST-SL1; type: functional, cell-based, Homo sapiens; settings: Homo sapiens, IST-SL1;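 also: growth inhibition of human IST-SL1 cells, read out with a cell viability assay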
Description: SANGER: Inhibition of human IST-SL1 cell growth in a cell viability assay.

[17] = system: MFE-280; type: functional, cell-based, Homo sapiens; settings: Homo sapiens, MFE-280;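 also: growth inhibition of MFE-280 cells, determined with a cell viability readout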
Description: SANGER: Inhibition of human MFE-280 cell growth in a cell viability assay.

[18] = system: SH-4; type: functional, cell-based, Homo sapiens; settings: Homo sapiens, SH-4;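 also: growth inhibition of SH-4 cells, read out with a cell viability assay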
Description: SANGER: Inhibition of human SH-4 cell growth in a cell viability assay.

[19] = system: KS-1; type: functional, cell-based, Homo sapiens; settings: Homo sapiens, KS-1;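 also: growth inhibition of KS-1 cells, read out with a cell viability assay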
Description: SANGER: Inhibition of human KS-1 cell growth in a cell viability assay.

[20] = system: OCUB-M; type: functional, cell-based, Homo sapiens; settings: Homo sapiens, OCUB-M;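 also: growth inhibition of the cancer cell line, read out through a cell viability assay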
Description: SANGER: Inhibition of human OCUB-M cell growth in a cell viability assay.

[21] = system: NOMO-1; type: functional, cell-based; settings: Homo sapiens;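 also: growth inhibition of human NOMO-1 cells measured by a cell viability assay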
Description: SANGER: Inhibition of human NOMO-1 cell growth in a cell viability assay.

[22] = system: KE-37; type: functional, cell-based; settings: Homo sapiens;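 also: growth inhibition of KE-37 cells, read out with a cell viability assay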
Description: SANGER: Inhibition of human KE-37 cell growth in a cell viability assay.

[23] = system: MC116; type: functional, cell-based; settings: Homo sapiens;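 also: growth inhibition of MC116 cells, read out with a cell viability assay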
Description: SANGER: Inhibition of human MC116 cell growth in a cell viability assay.

[24] = system: SKG-IIIa; type: functional, cell-based, Homo sapiens; settings: Homo sapiens, SKG-IIIa;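 also: cell growth inhibition, read out with a cell viability assay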
Description: SANGER: Inhibition of human SKG-IIIa cell growth in a cell viability assay.

[25] = system: OS-RC-2; type: functional, cell-based, Homo sapiens; settings: Homo sapiens, OS-RC-2;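 also: growth inhibition of human OS-RC-2 cells, measured by a cell viability assay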
Description: SANGER: Inhibition of human OS-RC-2 cell growth in a cell viability assay.

[26] = system: WM-115; type: functional, cell-based, Homo sapiens; settings: Homo sapiens, WM-115
Description: SANGER: Inhibition of human WM-115 cell growth in a cell viability assay.

[27] = system: MOLT-16; type: functional, cell-based; settings: Homo sapiens;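 also: growth inhibition of human MOLT-16 cells, read out with a cell viability assay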
Description: SANGER: Inhibition of human MOLT-16 cell growth in a cell viability assay.

[28] = system: HCC38; type: functional, cell-based, Homo sapiens; settings: Homo sapiens, HCC38;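 also: cell viability assay on the human HCC38 cell line, with IC50 marking the concentration that inhibits cell growth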
Description: SANGER: Inhibition of human HCC38 cell growth in a cell viability assay.

[29] = system: NCI-H292; type: functional, cell-based, Homo sapiens; settings: Homo sapiens, NCI-H292;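 also: growth inhibition of NCI-H292 cells, read out with a cell viability assay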
Description: SANGER: Inhibition of human NCI-H292 cell growth in a cell viability assay.

[30] = system: CWR22R; type: functional, cell-based, Homo sapiens; settings: Homo sapiens, 22Rv1;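 also: growth inhibition of 22Rv1 cells, read out with a cell viability assay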
Description: SANGER: Inhibition of human 22RV1 cell growth in a cell viability assay.

[31] = system: HCC70; type: functional, cell-based, Homo sapiens; settings: Homo sapiens, HCC70;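 also: cell viability assay measuring how strongly the compound suppresses proliferation of HCC70 cells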
Description: SANGER: Inhibition of human HCC70 cell growth in a cell viability assay.

[32] = system: NOS-1; type: functional, cell-based, Homo sapiens; settings: Homo sapiens, NOS-1;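 also: growth inhibition of the human NOS-1 cell line, read out with a cell viability assay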
Description: SANGER: Inhibition of human NOS-1 cell growth in a cell viability assay.

[33] = system: U-118-MG; type: functional, cell-based, Homo sapiens; settings: Homo sapiens, U-118-MG
Description: SANGER: Inhibition of human U-118-MG cell growth in a cell viability assay.

[34] = system: MeWo; type: functional, cell-based, Homo sapiens; settings: Homo sapiens, MeWo;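 also: growth inhibition of MeWo cells, determined by a cell viability readout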
Description: SANGER: Inhibition of human Mewo cell growth in a cell viability assay.

[35] = system: KARPAS-45; type: functional, cell-based; settings: Homo sapiens;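 also: inhibition of cell line growth, read out through a viability assay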
Description: SANGER: Inhibition of human KARPAS-45 cell growth in a cell viability assay.

[36] = system: LB1047-RCC; type: functional, cell-based, Homo sapiens; settings: Homo sapiens, LB1047-RCC;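 also: inhibition of cell growth, determined with a cell viability assay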
Description: SANGER: Inhibition of human LB1047-RCC cell growth in a cell viability assay.

[37] = system: CTV-1; type: functional, cell-based; settings: Homo sapiens;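 also: growth inhibition of the cell line, read out with a cell viability assay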
Description: SANGER: Inhibition of human CTV-1 cell growth in a cell viability assay.

[38] = system: MZ1-PC; type: functional, cell-based, Homo sapiens; settings: Homo sapiens, MZ1-PC;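 also: cell viability assay measuring growth inhibition of human MZ1-PC cells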
Description: SANGER: Inhibition of human MZ1-PC cell growth in a cell viability assay.

[39] = system: MPP-89; type: functional, cell-based, Homo sapiens; settings: Homo sapiens, MPP-89;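 also: growth inhibition of human MPP-89 cells, read out with a cell viability assay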
Description: SANGER: Inhibition of human MPP-89 cell growth in a cell viability assay.

[40] = system: HuP-T3; type: functional, cell-based, Homo sapiens; settings: Homo sapiens, HuP-T3;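 also: HuP-T3 cell growth inhibition, read out with a cell viability assay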
Description: SANGER: Inhibition of human HuP-T3 cell growth in a cell viability assay.

[41] = system: TCC-SUP; type: functional, cell-based, Homo sapiens; settings: Homo sapiens, TCC-SUP;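 also: growth inhibition of TCC-SUP cells, read out with a cell viability assay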
Description: SANGER: Inhibition of human TCCSUP cell growth in a cell viability assay.

[42] = system: SiHa; type: functional, cell-based, Homo sapiens; settings: Homo sapiens, SiHa;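 also: Viability-based readout of growth inhibition in SiHa cells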
Description: SANGER: Inhibition of human SiHa cell growth in a cell viability assay.

[43] = system: KOSC-2; type: functional, cell-based, Homo sapiens; settings: Homo sapiens, KOSC-2;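 also: growth inhibition of KOSC-2 cells, read out by a cell viability assay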
Description: SANGER: Inhibition of human KOSC-2 cell growth in a cell viability assay.

[44] = system: MLMA; type: functional, cell-based, Homo sapiens; settings: Homo sapiens, MLMA;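 also: growth inhibition of MLMA cells (human), determined through a cell viability readout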
Description: SANGER: Inhibition of human MLMA cell growth in a cell viability assay.

[45] = system: HO-1-N-1; type: functional, cell-based, Homo sapiens; settings: Homo sapiens, HO-1-N-1;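 also: growth inhibition of human HO-1-N-1 cells, read out with a cell viability assay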
Description: SANGER: Inhibition of human HO-1-N-1 cell growth in a cell viability assay.

[46] = system: SF-295; type: functional, cell-based, Homo sapiens; settings: Homo sapiens, SF-295; read-out: IC50;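 also: growth inhibition of SF-295 cells, read out with a cell viability assay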
Description: SANGER: Inhibition of human SF295 cell growth in a cell viability assay.

[47] = system: DMS-273; type: functional, cell-based, Homo sapiens; settings: Homo sapiens, DMS-273
Description: SANGER: Inhibition of human DMS-273 cell growth in a cell viability assay.

[48] = system: RXF 393; type: functional, cell-based; settings: Homo sapiens;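 also: growth inhibition of human RXF 393 cells, read out with a cell viability assay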
Description: SANGER: Inhibition of human RXF393 cell growth in a cell viability assay.

[49] = system: KP-N-YS; type: functional, cell-based; settings: Homo sapiens;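 also: cell viability assay measuring inhibition of cell line growth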
Description: SANGER: Inhibition of human KP-N-YS cell growth in a cell viability assay.

[50] = system: 8-MG-BA; type: functional, cell-based, Homo sapiens; settings: Homo sapiens, 8-MG-BA;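 also: growth inhibition of 8-MG-BA cells, read out with a cell viability assay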
Description: SANGER: Inhibition of human 8-MG-BA cell growth in a cell viability assay.

[51] = system: HH; type: functional, cell-based; settings: Homo sapiens
Description: SANGER: Inhibition of human HH cell growth in a cell viability assay.

COc1cc(F)c(F)c(Nc2ccc(I)cc2F)c1NS(=O)(=O)C1(CC(O)CO)CC1 (centres undefined)
IC50 [1]: 3.85 µM | IC50 [2]: > 5 µM | IC50 [3]: 0.503 µM | IC50 [4]: > 5 µM | IC50 [5]: > 5 µM | IC50 [6]: > 5 µM | IC50 [7]: > 5 µM | IC50 [8]: > 5 µM | IC50 [9]: > 5 µM | IC50 [10]: 2.8 µM | IC50 [11]: > 5 µM | IC50 [12]: 1.78 µM | IC50 [13]: 0.0775 µM | IC50 [14]: 0.239 µM | IC50 [15]: 0.00492 µM | IC50 [16]: > 5 µM | IC50 [17]: > 5 µM | IC50 [18]: 0.0856 µM | IC50 [19]: 1.26 µM | IC50 [20]: > 5 µM | IC50 [21]: 0.137 µM | IC50 [22]: > 5 µM | IC50 [23]: > 5 µM | IC50 [24]: > 5 µM | IC50 [25]: > 5 µM | IC50 [26]: 0.421 µM | IC50 [27]: > 5 µM | IC50 [28]: > 5 µM | IC50 [29]: 0.64 µM | IC50 [30]: > 5 µM | IC50 [31]: > 5 µM | IC50 [32]: > 5 µM | IC50 [33]: > 5 µM | IC50 [34]: 0.753 µM | IC50 [35]: 1.14 µM | IC50 [36]: 1.09 µM | IC50 [37]: 4.96 µM | IC50 [38]: 1.34 µM | IC50 [39]: > 5 µM | IC50 [40]: > 5 µM | IC50 [41]: > 5 µM | IC50 [42]: > 5 µM | IC50 [43]: 1.68 µM | IC50 [44]: > 5 µM | IC50 [45]: 0.591 µM | IC50 [46]: > 5 µM | IC50 [47]: > 5 µM | IC50 [48]: 1.45 µM | IC50 [49]: > 5 µM | IC50 [50]: > 5 µM | IC50 [51]: > 5 µM

O=C1N=C(NCc2cccs2)S/C1=C\c1ccc2ncccc2c1
IC50 [1]: > 5 µM | IC50 [2]: > 5 µM | IC50 [3]: > 5 µM | IC50 [4]: > 5 µM | IC50 [5]: 3.09 µM | IC50 [6]: > 5 µM | IC50 [7]: > 5 µM | IC50 [8]: > 5 µM | IC50 [9]: > 5 µM | IC50 [10]: > 5 µM | IC50 [11]: > 5 µM | IC50 [12]: > 5 µM | IC50 [13]: > 5 µM | IC50 [14]: > 5 µM | IC50 [15]: > 5 µM | IC50 [16]: > 5 µM | IC50 [17]: > 5 µM | IC50 [18]: > 5 µM | IC50 [19]: > 5 µM | IC50 [20]: > 5 µM | IC50 [21]: > 5 µM | IC50 [22]: > 5 µM | IC50 [23]: > 5 µM | IC50 [24]: > 5 µM | IC50 [25]: > 5 µM | IC50 [26]: > 5 µM | IC50 [27]: > 5 µM | IC50 [28]: > 5 µM | IC50 [29]: > 5 µM | IC50 [30]: > 5 µM | IC50 [31]: > 5 µM | IC50 [32]: > 5 µM | IC50 [33]: > 5 µM | IC50 [34]: > 5 µM | IC50 [35]: > 5 µM | IC50 [36]: 3.24 µM | IC50 [37]: > 5 µM | IC50 [38]: > 5 µM | IC50 [39]: > 5 µM | IC50 [40]: > 5 µM | IC50 [41]: > 5 µM | IC50 [42]: > 5 µM | IC50 [43]: 3.45 µM | IC50 [44]: > 5 µM | IC50 [45]: > 5 µM | IC50 [46]: > 5 µM | IC50 [47]: > 5 µM | IC50 [48]: > 5 µM | IC50 [49]: > 5 µM | IC50 [50]: 3.14 µM | IC50 [51]: > 5 µM

O=c1cc(-c2cccc3c2Sc2ccccc2S3)oc(N2CCOCC2)c1 [KU-55933]
IC50 [1]: > 10 µM | IC50 [2]: > 10 µM | IC50 [4]: > 10 µM | IC50 [5]: > 10 µM | IC50 [6]: > 10 µM | IC50 [7]: > 10 µM | IC50 [8]: > 10 µM | IC50 [9]: > 10 µM | IC50 [10]: > 10 µM | IC50 [11]: > 10 µM | IC50 [12]: > 10 µM | IC50 [13]: > 10 µM | IC50 [15]: > 10 µM | IC50 [16]: > 10 µM | IC50 [17]: > 10 µM | IC50 [18]: > 10 µM | IC50 [19]: > 10 µM | IC50 [20]: > 10 µM | IC50 [21]: > 10 µM | IC50 [22]: > 10 µM | IC50 [23]: > 10 µM | IC50 [24]: > 10 µM | IC50 [25]: > 10 µM | IC50 [26]: > 10 µM | IC50 [27]: > 10 µM | IC50 [28]: > 10 µM | IC50 [29]: > 10 µM | IC50 [30]: > 10 µM | IC50 [31]: > 10 µM | IC50 [32]: > 10 µM | IC50 [33]: > 10 µM | IC50 [34]: > 10 µM | IC50 [36]: > 10 µM | IC50 [38]: > 10 µM | IC50 [39]: > 10 µM | IC50 [40]: > 10 µM | IC50 [41]: > 10 µM | IC50 [42]: > 10 µM | IC50 [43]: > 10 µM | IC50 [44]: > 10 µM | IC50 [45]: > 10 µM | IC50 [46]: > 10 µM | IC50 [47]: > 10 µM | IC50 [48]: > 10 µM | IC50 [49]: > 10 µM | IC50 [50]: > 10 µM | IC50 [51]: 8.28 µM
